From patent US7605156B2, “Methods for the use of inhibitors of cytosolic phospholipase A2” (Wyeth, priority 2001, dated 2009)

Molecular target: T1, cPLA2 (Homo sapiens, UniProt P47712)
T1 sequence (P47712 1-749): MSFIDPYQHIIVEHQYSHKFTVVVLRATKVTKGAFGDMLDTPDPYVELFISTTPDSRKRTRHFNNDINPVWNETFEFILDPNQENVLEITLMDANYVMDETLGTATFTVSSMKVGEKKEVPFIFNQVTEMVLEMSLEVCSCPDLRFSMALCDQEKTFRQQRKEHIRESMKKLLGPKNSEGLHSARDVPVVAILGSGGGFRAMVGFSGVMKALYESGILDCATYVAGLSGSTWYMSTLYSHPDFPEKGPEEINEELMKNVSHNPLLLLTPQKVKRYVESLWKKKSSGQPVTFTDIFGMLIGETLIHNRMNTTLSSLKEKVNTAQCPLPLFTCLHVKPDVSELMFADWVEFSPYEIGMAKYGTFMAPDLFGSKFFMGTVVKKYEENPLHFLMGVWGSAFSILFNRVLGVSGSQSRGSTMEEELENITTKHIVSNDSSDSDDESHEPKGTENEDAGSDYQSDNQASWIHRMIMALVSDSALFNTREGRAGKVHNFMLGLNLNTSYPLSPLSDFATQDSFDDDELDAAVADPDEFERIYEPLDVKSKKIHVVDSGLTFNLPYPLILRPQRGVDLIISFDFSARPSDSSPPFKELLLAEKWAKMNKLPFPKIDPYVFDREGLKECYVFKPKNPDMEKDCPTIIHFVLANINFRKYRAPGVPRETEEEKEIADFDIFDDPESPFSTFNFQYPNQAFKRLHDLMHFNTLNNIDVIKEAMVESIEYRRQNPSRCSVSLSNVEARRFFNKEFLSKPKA
Assay: Coumarine assay (hydrolysis of 7-hydroxycoumarinyl 6-heptenoate)
Format: biochemical
Details: 60 μM 7-hydroxycoumarinyl 6-heptenoate, pH 7.5; read-out: Coumarin IC50
Experimental: Inhibitors were mixed with 200 μL assay buffer (80 mM Heped, pH 7.5, 1 mM EDTA) containing 60 μM 7-hydroxycoumarinyl 6-heptenoate. The reaction was initiated by adding 4 μg cPLA2 in 50 μL assay buffer. Hydrolysis of the 7-hydroxycounarimyl 6-heptenoate ester was monitored in a fluorometer by exciting at 360 nm and monitoring emission at 460 nm. Enzyme activity is proportional to the increase in emission at 460 nm per minute. In the presence of a cPLA2 inhibitor, the rate of increase is less.

SMILES | IC50
Cc1nc(S(=O)(=O)NCCc2c(CCCc3ccc(C(=O)O)cc3)c3cc(Cl)ccc3n2C(c2ccccc2)c2ccccc2)cn1C [Example 257, 4-{3-[1-benzhydryl-5-chloro-2-(2-{[(1,2-dimethyl-1H-imidazol-4-yl)sulfonyl]amino}ethyl)-1H-indol-3-yl]propyl}benzoic acid] | 500 nM
Cc1nc(S(=O)(=O)NCCc2c(CCOc3ccc(C(=O)O)cc3)c3cc(Cl)ccc3n2C(c2ccccc2)c2ccccc2)cn1C [Example 258, 4-{2-[1-benzhydryl-5-chloro-2-(2-{[(1,2-dimethyl-1H-imidazol-4-yl)sulfonyl]amino}ethyl)-1H-indol-3-yl]ethoxy}benzoic acid] | 800 nM
O=C(O)CCc1ccc(S(=O)(=O)CCc2c(CCNS(=O)(=O)c3ccccc3Cl)n(C(c3ccccc3)c3ccccc3)c3ccc(Cl)cc23)cc1 [Example 259, 3-[4-({2-[1-benzhydryl-5-chloro-2-(2-{[(2-chlorophenyl)sulfonyl]amino}ethyl)-1H-indol-3-yl]ethyl}sulfonyl)phenyl]propanoic acid] | 200 nM
Cc1ccc(S(=O)(=O)NCCc2c(CCOc3ccc(C(=O)O)cc3)c3cc(Cl)ccc3n2C(c2ccccc2)c2ccccc2)cc1Cl [Example 260, 4-{2-[1-benzhydryl-5-chloro-2-(2-{[(3-chloro-4-methylphenyl)sulfonyl]amino}ethyl)-1H-indol-3-yl]ethoxy}benzoic acid] | 370 nM
Cc1ccc(S(=O)(=O)NCCc2c(CCCc3ccc(C(=O)O)cc3)c3cc(Cl)ccc3n2C(c2ccccc2)c2ccccc2)cc1Cl [Example 261, 4-{3-[1-benzhydryl-5-chloro-2-(2-([(3-chloro-4-methylphenyl)sulfonyl]amino}ethyl)-1H-indol-3-yl]propyl}benzoic acid] | 250 nM
Cc1c(Cl)cc(F)cc1S(=O)(=O)NCCc1c(CCOc2ccc(C(=O)O)cc2)c2cc(Cl)ccc2n1C(c1ccccc1)c1ccccc1 [Example 262, 4-{2-[1-benzhydryl-5-chloro-2-(2-{[(3-chloro-5-fluoro-2-methylphenyl)sulfonyl]amino}ethyl)-1H-indol-3-yl]ethoxy}benzoic acid] | 530 nM
Cc1c(Cl)cc(F)cc1S(=O)(=O)NCCc1c(CCCc2ccc(C(=O)O)cc2)c2cc(Cl)ccc2n1C(c1ccccc1)c1ccccc1 [Example 263, 4-{3-[1-benzhydryl-5-chloro-2-(2-{[(3-chloro-5-fluoro-2-methylphenyl)sulfonyl]amino}ethyl)-1H-indol-3-yl]propyl}benzoic acid] | 320 nM
O=C(O)c1ccc(CCCc2c(CCNS(=O)(=O)c3ccccc3[N+](=O)[O-])n(C(c3ccccc3)c3ccccc3)c3ccc(Cl)cc23)cc1 [Example 264, 4-{3-[1-benzhydryl-5-chloro-2-(2-{[(2-nitrophenyl)sulfonyl]amino}ethyl)-1H-indol-3-yl]propyl}benzoic acid] | 400 nM
O=C(O)c1ccc(OCCc2c(CCNS(=O)(=O)c3ccccc3[N+](=O)[O-])n(C(c3ccccc3)c3ccccc3)c3ccc(Cl)cc23)cc1 [Example 265, 4-{2-[1-benzhydryl-5-chloro-2-(2-{[(2-nitrophenyl)sulfonyl]amino}ethyl)-1H-indol-3-yl]ethoxy}benzoic acid] | 370 nM
Cc1cc(C)c(S(=O)(=O)NCCc2c(CCOc3ccc(C(=O)O)cc3)c3cc(Cl)ccc3n2C(c2ccccc2)c2ccccc2)c(C)c1 [Example 266, 4-[2-(1-benzhydryl-5-chloro-2-{2-[(mesitylsulfonyl)amino]ethyl}-1H-indol-3-yl)ethoxy]benzoic acid] | 160 nM
Cc1cc(C)c(S(=O)(=O)NCCc2c(CCCc3ccc(C(=O)O)cc3)c3cc(Cl)ccc3n2C(c2ccccc2)c2ccccc2)c(C)c1 [Example 267, 4-(3-{1-Benzhydryl-5-chloro-2-[2-(2,4,6-trimethyl-benzenesulfonylamino)-ethyl]-1H-indol-3-yl}-propyl)-benzoic acid] | 74 nM
O=C(O)c1ccc(CCCc2c(CCNS(=O)(=O)c3c(F)cccc3C(F)(F)F)n(C(c3ccccc3)c3ccccc3)c3ccc(Cl)cc23)cc1 [Example 268, 4-(3-{1-benzhydryl-5-chloro-2-[2-({[2-fluoro-6-(trifluoromethyl)phenyl]sulfonyl}amino)ethyl]-1H-indol-3-yl}propyl)benzoic acid] | 90 nM
O=C(O)c1ccc(OCCc2c(CCNS(=O)(=O)c3c(F)cccc3C(F)(F)F)n(C(c3ccccc3)c3ccccc3)c3ccc(Cl)cc23)cc1 [Example 269] | 150 nM
Cc1cccc(C)c1S(=O)(=O)NCCc1c(CCCc2ccc(C(=O)O)cc2)c2cc(Cl)ccc2n1C(c1ccccc1)c1ccccc1 [Example 270, 4-(3-[1-benzhydryl-5-chloro-2-(2-{[(2,6-dimethylphenyl)sulfonyl]amino}ethyl)-1H-indol-3-yl]propyl}benzoic acid] | 140 nM
Cc1cccc(C)c1S(=O)(=O)NCCc1c(CCOc2ccc(C(=O)O)cc2)c2cc(Cl)ccc2n1C(c1ccccc1)c1ccccc1 [Example 271, 4-{2-[1-benzhydryl-5-chloro-2-(2-{[(2,6-dimethylphenyl)sulfonyl]amino}ethyl)-1H-indol-3-yl]ethoxy}benzoic acid] | 150 nM
CCc1cccc(CC)c1S(=O)(=O)NCCc1c(CCOc2ccc(C(=O)O)cc2)c2cc(Cl)ccc2n1C(c1ccccc1)c1ccccc1 [Example 272, 4-{2-[1-benzhydryl-5-chloro-2-(2-{[(2,6-diethylphenyl)sulfonyl]amino}ethyl)-1H-indol-3-yl]ethoxy}benzoic acid] | 100 nM
CCc1cccc(CC)c1S(=O)(=O)NCCc1c(CCCc2ccc(C(=O)O)cc2)c2cc(Cl)ccc2n1C(c1ccccc1)c1ccccc1 [Example 273, 4-{3-[1-benzhydryl-5-chloro-2-(2-{[(2,6-diethylphenyl)sulfonyl]amino}ethyl)-1H-indol-3-yl]propyl}benzoic acid] | 110 nM
COc1cccc(OC)c1S(=O)(=O)NCCc1c(CCCc2ccc(C(=O)O)cc2)c2cc(Cl)ccc2n1C(c1ccccc1)c1ccccc1 [Example 275, 4-{3-[1-benzhydryl-5-chloro-2-(2-{[(2,6-dimethoxyphenyl)sulfonyl]amino}ethyl)-1H-indol-3-yl]propyl}benzoic acid] | 240 nM
CC(CCl)c1ccccc1S(=O)(=O)NCCc1c(CCCc2ccc(C(=O)O)cc2)c2cc(Cl)ccc2n1C(c1ccccc1)c1ccccc1 (centres unmarked) [Example 277, 4-(3-{1-Benzhydryl-5-chloro-2-[2-({[2-(2-chloro-1-methylethyl)phenyl]sulfonyl}amino)ethyl]-1H-indol-3-yl}propyl)benzoic acid] | 600 nM
CC(CCl)c1ccccc1S(=O)(=O)NCCc1c(CCOc2ccc(C(=O)O)cc2)c2cc(Cl)ccc2n1C(c1ccccc1)c1ccccc1 (centres unmarked) [Example 278] | 1900 nM
O=C(O)c1ccc(CCCc2c(CCNS(=O)(=O)C3CC3)n(C(c3ccccc3)c3ccccc3)c3ccc(Cl)cc23)cc1 [Example 280, 4-[3-(1-benzhydryl-5-chloro-2-{2-[(cyclopropylsulfonyl)amino]-ethyl}-1H-indol-3-yl)propyl]benzoic acid] | 350 nM
O=C(O)c1cccc(OCCc2c(CCNS(=O)(=O)Cc3ccccc3)n(C(c3ccccc3)c3ccccc3)c3ccc(Cl)cc23)c1 [Example 283] | 500 nM
O=C(O)c1ccc(OCCc2c(CCNS(=O)(=O)CSc3ccc(Cl)cc3Cl)n(C(c3ccccc3)c3ccccc3)c3ccc(Cl)cc23)cc1 [Example 287, 4-[2-(1-benzhydryl-5-chloro-2-{2-[([[(2,4-dichlorophenyl)sulfanyl]methyl}sulfonyl)amino]ethyl}-1H-indol-3-yl)ethoxy]benzoic acid] | 420 nM
O=C(O)c1ccc(OCCc2c(CCNS(=O)(=O)CSc3ccc(F)cc3F)n(C(c3ccccc3)c3ccccc3)c3ccc(Cl)cc23)cc1 [Example 288, 4-[2-(1-benzhydryl-5-chloro-2-{2-[({[(2,4-difluorophenyl)thio]methyl}sulfonyl)amino]ethyl}-1H-indol-3-yl)ethoxy]benzoic acid] | 400 nM
O=C(O)c1ccc(OCCc2c(CCNS(=O)(=O)C[S+]([O-])c3ccc(Cl)c(Cl)c3)n(C(c3ccccc3)c3ccccc3)c3ccc(Cl)cc23)cc1 (centres unmarked) [Example 289, 4-[2-(1-benzhydryl-5-chloro-2-{2-[({[(3,4-dichlorophenyl)sulfinyl]methyl}sulfonyl)amino]ethyl}-1H-indol-3-yl)ethoxy]benzoic acid] | 900 nM
O=C(O)c1ccc(CCCc2c(CCNS(=O)(=O)c3ccccc3Cl)n(C(c3ccccc3)c3ccccc3)c3ccccc23)cc1 [Example 295, 4-{3-[1-benzhydryl-2-(2-{[(2-chlorophenyl)sulfonyl]amino}ethyl)-1H-indol-3-yl]propyl}benzoic acid] | 550 nM
